Measured values as given in ChEMBL document CHEMBL6177993, “De Novo 3-(Phenylcarbamoyl) Benzoate Analogues: Efficacy against Multidrug-Resistant S. aureus and Elucidation of the Biodistribution Profile” (J Med Chem, 2025).
≈ marks a conversion by molar mass, not a printed value. Calls of active or inactive are those of the source. The rule behind the calls is not given here.

What was measured:
[1] = system: Enterococcus faecalis; experiment: Antibacterial activity against Enterococcus faecalis ATCC 35550 assessed as reduction in bacterial growth measured after 18 to 24 hrs by broth microdilution method; assay type: functional; conditions: time 18-24 hrs
[2] = system: Bacillus subtilis; experiment: Antibacterial activity against Bacillus subtilis IITKSM1 assessed as reduction in bacterial growth measured after 18 to 24 hrs by broth microdilution method; assay type: functional; conditions: time 18-24 hrs
[3] = system: Acinetobacter baumannii; experiment: Antibacterial activity against Acinetobacter baumannii BAA 1605 assessed as reduction in bacterial growth measured after 18 to 24 hrs by broth microdilution method; assay type: functional; conditions: time 18-24 hrs
[4] = system: Pseudomonas aeruginosa; experiment: Antibacterial activity against Pseudomonas aeruginosa ATCC 27853 assessed as reduction in bacterial growth measured after 18 to 24 hrs by broth microdilution method; assay type: functional; conditions: time 18-24 hrs
[5] = system: Escherichia coli; experiment: Antibacterial activity against Escherichia coli ATCC 25922 assessed as reduction in bacterial growth measured after 18 to 24 hrs by broth microdilution method; assay type: functional; conditions: time 18-24 hrs
[6] = Solubility of the compound in distilled water; assay type: physicochemical; conditions: buffer
[7] = Solubility of the compound in DMSO/DMF; assay type: physicochemical
[8] = system: Staphylococcus aureus; experiment: Antibacterial activity against methicillin-sensitive Staphylococcus aureus ATCC 29213 assessed as reduction in bacterial growth measured after 18 to 24 hrs by broth microdilution method; assay type: functional; conditions: time 18-24 hrs
[9] = system: Staphylococcus aureus; experiment: Antibacterial activity against methicillin-resistant Staphylococcus aureus NRS 100 assessed as reduction in bacterial growth measured after 18 to 24 hrs by broth microdilution method; assay type: functional; conditions: time 18-24 hrs
[10] = system: Staphylococcus aureus; experiment: Antibacterial activity against methicillin-resistant Staphylococcus aureus NRS 119 assessed as reduction in bacterial growth measured after 18 to 24 hrs by broth microdilution method; assay type: functional; conditions: time 18-24 hrs
[11] = system: Staphylococcus aureus; experiment: Antibacterial activity against methicillin-resistant Staphylococcus aureus NRS 129 assessed as reduction in bacterial growth measured after 18 to 24 hrs by broth microdilution method; assay type: functional; conditions: time 18-24 hrs
[12] = system: Staphylococcus aureus; experiment: Antibacterial activity against methicillin-resistant Staphylococcus aureus NRS 192 assessed as reduction in bacterial growth measured after 18 to 24 hrs by broth microdilution method; assay type: functional; conditions: time 18-24 hrs
[13] = system: Staphylococcus aureus; experiment: Antibacterial activity against methicillin-resistant Staphylococcus aureus NRS 193 assessed as reduction in bacterial growth measured after 18 to 24 hrs by broth microdilution method; assay type: functional; conditions: time 18-24 hrs
[14] = system: Staphylococcus aureus; experiment: Antibacterial activity against methicillin-resistant Staphylococcus aureus NRS 194 assessed as reduction in bacterial growth measured after 18 to 24 hrs by broth microdilution method; assay type: functional; conditions: time 18-24 hrs
[15] = system: Staphylococcus aureus; experiment: Antibacterial activity against methicillin-resistant Staphylococcus aureus NRS 198 assessed as reduction in bacterial growth measured after 18 to 24 hrs by broth microdilution method; assay type: functional; conditions: time 18-24 hrs
[16] = system: Staphylococcus aureus; experiment: Antibacterial activity against vacomycin-resistant Staphylococcus aureus VRS 1 assessed as reduction in bacterial growth measured after 18 to 24 hrs by broth microdilution method; assay type: functional; conditions: time 18-24 hrs
[17] = system: Staphylococcus aureus; experiment: Antibacterial activity against vacomycin-resistant Staphylococcus aureus VRS 4 assessed as reduction in bacterial growth measured after 18 to 24 hrs by broth microdilution method; assay type: functional; conditions: time 18-24 hrs
[18] = system: Staphylococcus aureus; experiment: Antibacterial activity against vacomycin-resistant Staphylococcus aureus VRS 12 assessed as reduction in bacterial growth measured after 18 to 24 hrs by broth microdilution method; assay type: functional; conditions: time 18-24 hrs
[19] = Hemolytic activity in human Red blood cell at 32 ug/ml measured after 1 hrs by spectrophotometric analysis relative to control; assay type: toxicity, cell-based, Erythrocyte; conditions: red blood cells, at 32 µg/mL, read-out: Activity
[20] = system: Staphylococcus aureus; experiment: Inhibition of biofilm in Staphylococcus aureus ATCC 29213 at 1 times MIC measured after 12 hrs by crystal violet staining based analysis relative to control; assay type: functional
[21] = system: Staphylococcus aureus; experiment: Inhibition of biofilm in Staphylococcus aureus ATCC 29213 at 0.5 times MIC measured after 12 hrs by crystal violet staining based analysis relative to control; assay type: functional
[22] = system: Staphylococcus aureus; experiment: Inhibition of biofilm in Staphylococcus aureus ATCC 29213 at 2 times MIC measured after 12 hrs by crystal violet staining based analysis relative to control; assay type: functional
[23] = system: Staphylococcus aureus; experiment: Inhibition of biofilm in Staphylococcus aureus ATCC 29213 at 1 ug/ml measured after 12 hrs by crystal violet staining based analysis; assay type: functional, organism-based; conditions: dose 1.0 µg/ml
[24] = system: Staphylococcus aureus; experiment: Antibiofilm activity in Staphylococcus aureus ATCC 29213 assessed as disruption of preformed biofilm at 40 times MIC measured after 24 hrs by crystal violet staining based assay relative to control; assay type: functional
[25] = system: Staphylococcus aureus; experiment: Antibiofilm activity in Staphylococcus aureus ATCC 29213 assessed as disruption of preformed biofilm at 1 times MIC measured after 24 hrs by crystal violet staining based assay relative to control; assay type: functional
[26] = system: Staphylococcus aureus; experiment: Antibiofilm activity in Staphylococcus aureus ATCC 29213 assessed as disruption of preformed biofilm at 5 times MIC measured after 24 hrs by crystal violet staining based assay relative to control; assay type: functional
[27] = system: Staphylococcus aureus; experiment: Antibiofilm activity in Staphylococcus aureus ATCC 29213 assessed as disruption of preformed biofilm at 10 times MIC measured after 24 hrs by crystal violet staining based assay relative to control; assay type: functional
[28] = system: Staphylococcus aureus; experiment: Antibiofilm activity in Staphylococcus aureus ATCC 29213 assessed as disruption of preformed biofilm at 20 times MIC measured after 24 hrs by crystal violet staining based assay relative to control; assay type: functional
[29] = system: Staphylococcus aureus; experiment: Bactericidal activity against Staphylococcus aureus ATCC 29213 at 4 to 8 time MIC measured after 8 hrs by time-kill assay; assay type: functional, organism-based
[30] = system: Staphylococcus aureus; experiment: Bactericidal activity against Staphylococcus aureus ATCC 29213 at 4 to 8 time MIC measured within 60 mins by time-kill assay; assay type: functional, organism-based
[31] = system: Staphylococcus aureus; experiment: Antibacterial activity against Staphylococcus aureus ATCC 29213 measured after 20 passages; assay type: functional, organism-based
[32] = system: Cell membrane; experiment: Disruption of cell membrane in Staphylococcus aureus ATCC 29213 assessed as increase in red fluorescence at 5 to 10 times MIC measured after 4 hrs by DAPI and PI staining based fluorescence microscopic analysis
[33] = system: Staphylococcus aureus; experiment: Antibacterial activity against Staphylococcus aureus ATCC 29213 infected in female BALB/c mouse skin infection model assessed as appearance of smooth dorsal skin at 10 times MIC pre-infected with bacteria followed by compound addition and measured after 24 hrs; assay type: functional, organism-based
[34] = system: Staphylococcus aureus; experiment: Antibacterial activity against Staphylococcus aureus ATCC 29213 infected in female BALB/c mouse skin infection model assessed as log reduction in bacterial load at 10 times MIC pre-infected with bacteria followed by compound addition and measured after 24 hrs; assay type: functional
[35] = Toxicity in female BALB/c mouse assessed as effect on body weight measured after 24 hrs; conditions: in vivo
[36] = Toxicity in female BALB/c mouse assessed as effect on heart measured after 24 hrs by H and E staining based analysis; assay type: tissue-based; conditions: in vivo
[37] = Toxicity in female BALB/c mouse assessed as effect on spleen measured after 24 hrs by H and E staining based analysis; assay type: tissue-based; conditions: in vivo
[38] = Toxicity in female BALB/c mouse assessed as effect on lung measured after 24 hrs by H and E staining based analysis; assay type: tissue-based; conditions: in vivo
[39] = Drug distribution in female BALB/c mouse heart measured after 24 hrs; assay type: ADME, tissue-based; conditions: in vivo
[40] = Drug distribution in female BALB/c mouse skin measured after 24 hrs; assay type: ADME, tissue-based, Skin of body; conditions: in vivo
[41] = Drug distribution in female BALB/c mouse spleen measured after 24 hrs; assay type: ADME, tissue-based; conditions: in vivo
[42] = Drug distribution in female BALB/c mouse liver measured after 24 hrs; assay type: ADME, tissue-based; conditions: in vivo
[43] = Drug distribution in female BALB/c mouse kidney measured after 24 hrs; assay type: ADME, tissue-based; conditions: in vivo

Compound `O=C(O)c1cccc(C(=O)Nc2c(C(c3ccc(F)cc3)c3ccc(F)cc3)cc(Cl)cc2C(c2ccc(F)cc2)c2ccc(F)cc2)c1` has an MIC [1] of 1 µg/mL (≈ 1.47 µM), an MIC [2] of 1 µg/mL (≈ 1.47 µM) and an MIC [3] of over 64 µg/mL. The MIC [4] was over 64 µg/mL, the MIC [5] was over 64 µg/mL and the solubility [6] was “Insoluble”. For the same compound, the solubility [7] was 570 mg/mL (≈ 838000 µM), the MIC [8] was 2 µg/mL (≈ 2.94 µM) and the MIC [9] was 2 µg/mL (≈ 2.94 µM). For the same compound, the MIC [10] was 2 µg/mL (≈ 2.94 µM), the MIC [11] was 2 µg/mL (≈ 2.94 µM) and the MIC [12] was 2 µg/mL (≈ 2.94 µM). It also gave an MIC [13] of 2 µg/mL (≈ 2.94 µM), an MIC [14] of 2 µg/mL (≈ 2.94 µM) and an MIC [15] of 2 µg/mL (≈ 2.94 µM). It also gave an MIC [16] of 2 µg/mL (≈ 2.94 µM), an MIC [17] of 2 µg/mL (≈ 2.94 µM) and an MIC [18] of 2 µg/mL (≈ 2.94 µM). The hemolysis at 1 h, 32 ug/ml [19] was 70%, the “inhibition (INH)” value [20] was 91% and the “inhibition (INH)” value [21] was over 50%. For the same compound, the “inhibition (INH)” value [22] was 95%, the inhibition [23] was “Active” and the Activity [24] was 31.47%. For the same compound, the Activity [25] was 7.29%, the Activity [26] was 7.1% and the Activity [27] was 11.84%. The Activity [28] was 18.42%, the Activity [29] was “Active” and the Activity [30] was “Active”. For the same compound, the Activity [31] was “Active”, the Activity [32] was “Active” and the Activity [33] was “Active”. The Activity [34] was 0.8 log10CFU/ml, the Activity [35] was “Non-toxic” and the Activity [36] was “Non-toxic”. For the same compound, the Activity [37] was “Non-toxic”, the Activity [38] was “Non-toxic” and the Drug uptake [39] was 7.7 nmol/mg. For the same compound, the Drug uptake [40] was 5.93 nmol/mg, the Drug uptake [41] was 9.01 nmol/mg and the Drug uptake [42] was 3.92 nmol/mg. It also gave a Drug uptake [43] of 4.02 nmol/mg.
